How the values were obtained:
[1] = test system: U-251; assay: Cytotoxicity against human U251 cells assessed as growth inhibition after 48 hrs by SRB assay; assay type: functional; settings: U-251, 48 h
[2] = test system: EKVX; assay: Cytotoxicity against human EKVX cells assessed as growth inhibition after 48 hrs by SRB assay; assay type: functional
[3] = Cytotoxicity against human HCC2998 cells assessed as growth inhibition after 48 hrs by SRB assay; assay type: functional; settings: HCC 2998, 48 h
[4] = test system: KM12; assay: Cytotoxicity against human KM12 cells assessed as growth inhibition after 48 hrs by SRB assay; assay type: functional; settings: KM12, 48 h
[5] = Cytotoxicity against human Hs 578T cells assessed as growth inhibition after 48 hrs by SRB assay; assay type: functional
[6] = Cytotoxicity against human TK10 cells assessed as growth inhibition after 48 hrs by SRB assay; assay type: functional; settings: TK-10, 48 h
[7] = Cytotoxicity against human UACC62 cells assessed as growth inhibition after 48 hrs by SRB assay; assay type: functional; settings: UACC-62, 48 h
[8] = Cytotoxicity against human SW620 cells assessed as growth inhibition after 48 hrs by SRB assay; assay type: functional; settings: SW-620, 48 h
[9] = test system: CCRF-CEM; assay: Cytotoxicity against human CCRF-CEM cells assessed as growth inhibition after 48 hrs by SRB assay; assay type: functional
[10] = Cytotoxicity against human HOP62 cells assessed as growth inhibition after 48 hrs by SRB assay; assay type: functional; settings: HOP-62, 48 h
[11] = test system: NCI-H322M; assay: Cytotoxicity against human NCI-H322M cells assessed as growth inhibition after 48 hrs by SRB assay; assay type: functional
[12] = test system: Malme-3M; assay: Cytotoxicity against human MALME-3M cells assessed as growth inhibition after 48 hrs by SRB assay; assay type: functional
[13] = Cytotoxicity against human SF295 cells assessed as growth inhibition after 48 hrs by SRB assay; assay type: functional; settings: SF-295, 48 h
[14] = Cytotoxicity against human SKOV3 cells assessed as growth inhibition after 48 hrs by SRB assay; assay type: functional; settings: SK-OV-3, 48 h
[15] = biological target: T1, Estrogen receptor (Homo sapiens, UniProt P03372)
T1 sequence (P03372 whole entry): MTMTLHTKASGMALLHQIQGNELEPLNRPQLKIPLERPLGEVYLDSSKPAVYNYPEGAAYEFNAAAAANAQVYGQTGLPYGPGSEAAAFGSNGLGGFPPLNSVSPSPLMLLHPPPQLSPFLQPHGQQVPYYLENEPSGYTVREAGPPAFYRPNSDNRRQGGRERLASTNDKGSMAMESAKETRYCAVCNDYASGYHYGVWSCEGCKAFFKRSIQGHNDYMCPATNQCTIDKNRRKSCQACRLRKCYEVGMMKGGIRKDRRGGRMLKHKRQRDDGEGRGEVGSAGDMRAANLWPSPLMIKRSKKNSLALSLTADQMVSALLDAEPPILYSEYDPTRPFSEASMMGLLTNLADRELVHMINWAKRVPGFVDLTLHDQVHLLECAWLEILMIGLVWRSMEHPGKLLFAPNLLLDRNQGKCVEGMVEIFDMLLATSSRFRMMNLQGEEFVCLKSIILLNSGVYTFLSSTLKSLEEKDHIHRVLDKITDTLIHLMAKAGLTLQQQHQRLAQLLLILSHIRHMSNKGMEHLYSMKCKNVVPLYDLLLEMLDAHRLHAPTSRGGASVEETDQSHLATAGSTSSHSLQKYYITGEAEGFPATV
Description: Displacement of [3H]-E2 from human ER-alpha incubated for 16 to 20 hrs by liquid scintillation counting analysis

[16] = test system: NCI-H23; assay: Cytotoxicity against human NCI-H23 cells assessed as growth inhibition after 48 hrs by SRB assay; assay type: functional; settings: NCI-H23, 48 h
[17] = Cytotoxicity against human BT549 cells assessed as growth inhibition after 48 hrs by SRB assay; assay type: functional; settings: BT-549, 48 h
[18] = test system: SK-MEL-2; assay: Cytotoxicity against human SK-MEL-2 cells assessed as growth inhibition after 48 hrs by SRB assay; assay type: functional; settings: SK-MEL-2, 48 h
[19] = Cytotoxicity against human HCT15 cells assessed as growth inhibition after 48 hrs by SRB assay; assay type: functional; settings: HCT-15, 48 h
[20] = test system: SR; assay: Cytotoxicity against human SR cells assessed as growth inhibition after 48 hrs by SRB assay; assay type: functional
[21] = test system: NCI-H226; assay: Cytotoxicity against human NCI-H226 cells assessed as growth inhibition after 48 hrs by SRB assay; assay type: functional; settings: NCI-H226, 48 h
[22] = test system: SK-MEL-5; assay: Cytotoxicity against human SK-MEL-5 cells assessed as growth inhibition after 48 hrs by SRB assay; assay type: functional; settings: SK-MEL-5, 48 h
[23] = Cytotoxicity against human DU145 cells assessed as growth inhibition after 48 hrs by SRB assay; assay type: functional; settings: DU-145, 48 h
[24] = Cytotoxicity against human SF268 cells assessed as growth inhibition after 48 hrs by SRB assay; assay type: functional; settings: SF-268, 48 h
[25] = test system: A549; assay: Cytotoxicity against human A549 cells assessed as growth inhibition after 48 hrs by SRB assay; assay type: functional; settings: A549, 48 h
[26] = test system: MCF7; assay: Antiproliferative activity against human MCF7 cells after 72 hrs by MTT assay; settings: mcf7
[27] = Cytotoxicity against human SNB75 cells assessed as growth inhibition after 48 hrs by SRB assay; assay type: functional; settings: SNB-75, 48 h
[28] = read-out: LC50 (the source's name)

C/C(=C(/c1ccc(O)cc1)c1ccc(OCCN2CCCC2)cc1)c1ccccc1
GI50 [1]: 2.24 µM | LC50 (50% lethal concentration) [1]: 18 µM | TGI [1]: 5.49 µM | GI50 [2]: 2.46 µM | LC50 [2]: 33.9 µM | TGI [2]: 11.5 µM | GI50 [3]: 2.34 µM | TGI [3]: 6.18 µM | CC50 [3, 28]: 28.5 µM | GI50 [4]: 3.51 µM | LC50 (concentration giving 50% net cell kill) [4]: 41.5 µM | TGI [4]: 13.2 µM | GI50 [5]: 2.96 µM | TGI [5]: 9.9 µM | CC50 [5, 28]: > 100 µM | GI50 [6]: 4.61 µM | LC50 [6]: 40.7 µM | TGI [6]: 16.4 µM | GI50 [7]: 2.26 µM | TGI [7]: 4.72 µM | CC50 [7, 28]: 9.84 µM | GI50 [8]: 2.28 µM | LC50 [8]: 15.3 µM | TGI [8]: 5.16 µM | GI50 [9]: 3.2 µM | TGI [9]: 9.85 µM | CC50 [9, 28]: 50 µM | GI50 [10]: 2.1 µM | LC50 (concentration giving 50% net cell kill) [10]: 9.84 µM | TGI [10]: 4.54 µM | GI50 [11]: 5.12 µM | TGI [11]: 18.6 µM | CC50 [11, 28]: 47 µM | GI50 [12]: 1.7 µM | TGI [12]: 3.41 µM | CC50 [12, 28]: 6.84 µM | GI50 [13]: 1.95 µM | LC50 (concentration killing 50% of cells) [13]: 8.99 µM | TGI [13]: 4.19 µM | GI50 [14]: 3.25 µM | TGI [14]: 13 µM | CC50 [14, 28]: 36.9 µM | IC50 [15]: 0.0008 µM | GI50 [16]: 4.31 µM | TGI [16]: 18.2 µM | CC50 [16, 28]: 50.8 µM | GI50 [17]: 4.2 µM | TGI [17]: 15.7 µM | CC50 [17, 28]: 39.6 µM | GI50 [18]: 1.97 µM | TGI [18]: 3.95 µM | CC50 [18, 28]: 7.94 µM | GI50 [19]: 1.81 µM | LC50 (concentration killing 50% of cells) [19]: 14.4 µM | TGI [19]: 4.64 µM | GI50 [20]: 1.93 µM | TGI [20]: 5.75 µM | CC50 [20, 28]: 40.6 µM | GI50 [21]: 11.3 µM | LC50 (50% lethal concentration) [21]: 79 µM | TGI [21]: 29.8 µM | GI50 [22]: 1.72 µM | TGI [22]: 3.1 µM | CC50 [22, 28]: 5.59 µM | GI50 [23]: 9.72 µM | LC50 [23]: 46.3 µM | TGI [23]: 21.4 µM | GI50 [24]: 5.58 µM | LC50 [24]: 55.2 µM | TGI [24]: 20.7 µM | GI50 [25]: 3.53 µM | LC50 [25]: 35 µM | TGI [25]: 11 µM | IC50 [26]: < 1 µM | GI50 [27]: 3.07 µM | LC50 [27]: 42.2 µM | TGI [27]: 15.7 µM

— ChEMBL document CHEMBL3774317, “Design and synthesis of novel tamoxifen analogues that avoid CYP2D6 metabolism” (Eur J Med Chem, 2016)
